Laboratory results as given in patent publication US20090118135A1, “METHODS AND COMPOUNDS FOR REGULATING APOPTOSIS” (The Burnham Institute, priority 2007, published 2009).

Molecular target: T1, GST-Bfl-1 (Homo sapiens, UniProt Q16548)
T1 construct: lacking their C-terminal transmembrane domains (about the last 20 amino acids) (“ΔTM”); made in house; host or cells: XL-1 Blue E. coli, pGEX 4T-1
T1 sequence (Q16548 1-155 limits assumed): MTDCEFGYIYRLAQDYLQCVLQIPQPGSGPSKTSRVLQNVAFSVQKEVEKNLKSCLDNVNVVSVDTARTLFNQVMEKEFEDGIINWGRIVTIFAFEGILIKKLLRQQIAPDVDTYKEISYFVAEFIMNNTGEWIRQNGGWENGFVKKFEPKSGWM
Assay: Bfl-1/FITC-Bid BH3 competitive fluorescence polarization assay
Type: binding
Settings: primary HTS hits, MLSCN library (PubChem SIDs), Table 5B

Row | Structure (SMILES) | % Activity [%] | FRatio
1 | O=C(CSc1nc(O)c2ccccc2n1)c1ccc(O)c(O)c1 [Compound 4242102] | 64.2 | 0.57
2 | O=C(COC(=O)Cc1ccccc1)Nc1ncc(Cl)cc1Cl [Compound 14744122] | 58.8 | 1.03
3 | Cc1ccc2c(c1)c(=O)c1c3n2CCN(C(=O)CCl)C3CC1 (stereo not drawn) [Compound 14742276] | 72.4 | 0.88
4 | O=C(Nc1ccc2nc(-c3ccco3)c(-c3ccco3)nc2c1)N1CCCCCC1 [Compound 4258795] | 83.2 | 0.96
5 | O=C(NCCCN1CCN(Cc2ccccc2)CC1)C1CCN(c2nnc(-n3cccc3)s2)CC1 [Compound 4250401] | 50.8 | 0.86
6 | O=C(c1cnccn1)N1CCc2ccccc21 [Compound 3713383] | 80.1 | 0.72
7 | CN(C)S(=O)(=O)N(CC(=O)N(Cc1ccccc1)Cc1ccccc1)c1ccccc1 [Compound 14736293] | 90.4 | 0.73
8 | COc1ccc(NC(=O)c2noc3c2CCC3)cc1 [Compound 14733727] | 102.1 | 0.93
9 | N#C/C(C(N)=O)=c1/ccc2c(c1)N1C3=C(CCCC3)CC3CCCCC31N=2 (stereo not drawn) [Compound 856266] | 74.3 | 0.62
10 | Cc1ccc(S(=O)(=O)N2CCCCC2)cc1C(=O)Nc1nc[nH]n1 [Compound 3716232] | 50.5 | 0.86
11 | Cc1cnnn1-c1ccc(C(=O)CCl)cc1 [Compound 14744853] | 52.9 | 0.82
12 | Cc1cccc(OCC(=O)Nc2ccc(S(=O)(=O)N3CCCC3)cc2)c1 [Compound 7973703] | 79.2 | 0.82
13 | COC(=O)C1=C(C)N(c2ccccc2)/C(=C/c2cccs2)C1=O [Compound 17415043] | 65.7 | 0.53
14 | Cc1ccc(C(=O)ONc2ccc(/N=N/C(=O)c3ccccc3O)cc2)cc1 [Compound 14732345] | 108.7 | 0.83
15 | Cc1ccc(O)c(/N=C/C2=C(O)c3ccccc3C2=O)c1 [Compound 7974116] | 56 | 0.92
16 | Cc1cc(-c2csc(N)n2)c(C)n1C [Compound 14746541] | 69.5 | 0.94
17 | Cn1c(=O)n(C)c2cc(S(=O)(=O)Nc3ccccc3O)ccc21 [Compound 14723355] | 52.9 | 0.98
18 | Cc1cc[n+]2c3c(cccc13)CCC2 [Compound 14748512] | 76.6 | 0.76
19 | Cc1cc(Cl)ccc1OCC(=O)OC(C)C(=O)N(C)C (stereo not drawn) [Compound 867049] | 53.3 | 0.78
20 | COCCn1c(SCC(=O)Nc2ncc(Cl)c(C)c2Cl)nc2ccccc21 [Compound 3717339] | 64.7 | 0.94
21 | Cc1ccc2nc(O)c(C3C(C#N)=C(N)Oc4c3ccc3cccnc43)cc2c1 (stereo not drawn) [Compound 14720783] | 55 | 0.84
22 | CCOc1ccc(C(=O)OCC(=O)NCc2ccco2)cc1OCC [Compound 3714498] | 71.4 | 1
23 | Clc1ccc2nc(CN3CCCc4ccccc43)cn2c1 [Compound 3711377] | 61.3 | 0.75
24 | CCOC(=O)C1=C(C)S/C(=C\N(C)C)C1=O [Compound 7972859] | 68.4 | 0.91
25 | Cc1ccc(OCCC(=O)OCC(=O)Nc2ccc(Cl)cn2)cc1 [Compound 3713376] | 54.8 | 1.43
26 | CCn1ccc(C(=O)Nc2ccc(S(=O)(=O)Nc3ccccc3OC)cc2)n1 [Compound 4241115] | 82 | 0.87
27 | O=C(Cc1ccccc1)Nc1ccc(N2CCCC2)cc1 [Compound 14739360] | 59.1 | 0.93
